Reference: publication PMC11342128, “Gold(I) and gold(III) carbene complexes from the marine betaine norzooanemonin: inhibition of thioredoxin reductase, antiproliferative and antimicrobial activity” (RSC Medicinal Chemistry, 2024)
Where “and” joins values, the source holds several entries; their conditions need not be identical. Identical values can stand only once.

Key:
[1] = test system: A549 lung carcinoma cells; experiment: Antiproliferative activity, crystal violet assay; assay type: cell-based; conditions: 72 h exposure, SD in parentheses, n = 3
Procedure: (§1) The antiproliferative potential of the gold–NHC complexes was determined in A549 lung carcinoma cells, MDA-MB-231 breast cancer cells, MCF-7 breast adenocarcinoma cells, and HT-29 colon carcinoma cells (Table 1). Vero E6 African green monkey kidney cells served as a reference cell line to check for possible tumour selectivity. Auranofin (AF) was used as an established reference drug.[15,17] […]
(§2) S2.2. Cytotoxicity and Anticancer Studies
(§3) Cell culture and cytotoxicity
(§4) Cell lines were sourced from DSMZ (German Collection of Microorganisms and Cell Cultures GmbH) and maintained through standard procedures in Dulbecco's Modified Eagle Medium (DMEM) supplemented with 10% fetal calf serum and 50 mg/L gentamycin. Antiproliferative effects were assessed using a well-established assay protocol. In brief, 100 μL volumes of A549 cells (13,243 cells per mL), HT-29 cells (14,657 cells per mL), MDA-MB-231 cells (6,613 cells per mL), or MCF-7 cells (6,917 cells per mL) were transferred into the wells of 96-well plates and incubated at 37°C/5% CO2 for 72 […]
(§5) Freshly prepared stock solutions of the compounds in DMSO were diluted with the respective cell culture medium to achieve graded concentrations (final concentration of DMSO: 0.1% v/v). After 72 hours (A549, HT-29) or 96 hours (MCF-7, MDA-MB-231) of exposure, the cell biomass was assessed through crystal violet staining, and the IC50 value was determined as the concentration causing 50% inhibition of cell proliferation compared to an untreated control. Results were calculated as the mean values of three independent experiments.

[2] = test system: HT-29 colon carcinoma cells; experiment: Antiproliferative activity, crystal violet assay; assay type: cell-based; conditions: 72 h exposure, SD in parentheses, n = 3
Procedure: as §1, §2, §3, §4, §5

[3] = test system: MCF-7 breast adenocarcinoma cells; experiment: Antiproliferative activity, crystal violet assay; assay type: cell-based; conditions: 96 h exposure, SD in parentheses, n = 3
Procedure: as §1, §2, §3, §4, §5

[4] = test system: MDA-MB-231 breast cancer cells; experiment: Antiproliferative activity, crystal violet assay; assay type: cell-based; conditions: 96 h exposure, SD in parentheses, n = 3
Procedure: as §1, §2, §3, §4, §5

[5] = test system: Vero E6 African green monkey kidney cells; experiment: Antiproliferative activity in non-tumour reference cell line; assay type: cell-based; conditions: for IC50: Vero E6 non-tumour reference cell line, SD in parentheses, n = 3; for Tumour selectivity: tumour cell lines in comparison to Vero E6: comparison of IC50 in tumour cell lines and non-tumour Vero E6
Procedure: as §1, §2, §3, §4, §5

[6] = test system: Acinetobacter baumannii DSM30007; experiment: Antibacterial activity (MIC, curve fitting); assay type: cell-based; conditions: for MIC, A.b.: Table 2, Acinetobacter baumannii DSM30007, 18 h, 37 °C; for MIC, A. baumannii: Table S12, ± standard error of the mean
Procedure: (§6) The antibacterial activity of all gold complexes was assessed against six pathogenic bacterial strains, including two Gram-positive species, i.e. Enterococcus faecium and methicillin-resistant Staphylococcus aureus (MRSA), and four Gram-negative species, i.e. Acinetobacter baumannii, Escherichia coli, Klebsiella pneumoniae, and Pseudomonas aeruginosa. Minimum inhibitory concentrations (MICs) were determined using a curve-fitting technique.
(§7) S2.1. Antibacterial Studies
(§8) Bacterial cultures were prepared by overnight aerobic incubation at 37 °C. Gram-negative strains were cultivated in Müller Hinton broth supplemented with 1% glucose at pH 7.2, while Gram-positive strains were grown in Trypticase soy yeast extract medium (TSY) with a composition of 30 g/l trypticase soy broth, 3 g/l yeast extract, and pH 7.2. The cultures were adjusted to an OD600 of 0.001, resulting in a final starting OD600 of 0.0005 for the subsequent tests. For testing, 25 μL of the prepared culture was combined with 25 μL of serially diluted test compounds in 384 well plates, following established protocols for different strains. Screening was performed at compound concentrations of 0.5, 5, and 50 µM, and for selected compounds, growth inhibition curves were recorded using DMSO stock solutions […]
(§9) Positive control compounds, namely linezolid (for MRSA strains), ciprofloxacin (for E. faecium and E. coli), and amikacin (for P. aeruginosa), were included. The maximum DMSO concentration in the assay […]
(§10) After an 18-hour incubation at 37 °C under moist conditions, the optical density at 600 nm was measured using a Fusion Universal Microplate Analyser (Perkin–Elmer, Waltham, USA). The minimum inhibitory concentration (MIC) values, representing the […]
(§11) fitting with Sigma Plot. The bacterial strains used included Gram-negative strains: Escherichia coli (DSM 1116), A. baumannii (DSM30007), K. pneumoniae (DSM111678), and Pseudomonas aeruginosa PA7 (DSM 24068); and Gram-positive strains: E. faecium (DSM20477) and Staphylococcus aureus MRSA

[7] = test system: Enterococcus faecium DSM20477; experiment: Antibacterial activity (MIC, curve fitting); assay type: cell-based; conditions: for MIC, E.f.: Table 2, Enterococcus faecium DSM20477, 18 h, 37 °C; for MIC, E. faecium: Table S12, ± standard error of the mean
Procedure: as §6, §7, §8, §9, §10, §11

[8] = test system: Escherichia coli DSM 1116; experiment: Antibacterial activity (MIC, curve fitting); assay type: cell-based; conditions: for MIC, E.c.: Table 2, Escherichia coli DSM 1116, 18 h, 37 °C; for MIC, E. coli: Table S12, ± standard error of the mean
Procedure: as §6, §7, §8, §9, §10, §11

[9] = test system: Klebsiella pneumoniae DSM111678; experiment: Antibacterial activity (MIC, curve fitting); assay type: cell-based; conditions: for MIC, K.p.: Table 2, Klebsiella pneumoniae DSM111678, 18 h, 37 °C; for MIC, K. pneumoniae: Table S12, ± standard error of the mean
Procedure: as §6, §7, §8, §9, §10, §11

[10] = test system: Pseudomonas aeruginosa DSM 24068; experiment: Antibacterial activity (MIC, curve fitting); assay type: cell-based; conditions: for MIC, P.a.: Table 2, Pseudomonas aeruginosa DSM 24068, 18 h, 37 °C; for MIC, P. aeruginosa: Table S12, ± standard error of the mean
Procedure: as §6, §7, §8, §9, §10, §11

[11] = test system: methicillin-resistant Staphylococcus aureus DSM 11822; experiment: Antibacterial activity (MIC, curve fitting); assay type: cell-based
Procedure: as §6, §7, §8, §9, §10, §11

TrxR from E. coli = TrxR from E. coli (Escherichia coli, UniProt P0A9P4); experiment: Inhibition of isolated bacterial TrxR, DTNB-based assay; assay type: biochemical; design: purchased Sigma-Aldrich; conditions: for TrxR activity, % of control: compounds at 0.5 µM, n = 2, Table S13; for IC50: isolated E. coli TrxR, DTNB assay, ± standard deviation, n = 3
Procedure: The inhibition of isolated TrxR from E. coli was determined for the selected monocarbene gold(I/III) complexes 2a–c and 4b–c using a DTNB-based assay (Table 3). […] The inhibition of bacterial TrxR for compound 2a was investigated in our previous report (Table 3).
S2.3. Inhibition of bacterial TrxR from E. coli
The TrxR (E. coli) inhibition assay was performed according to previously published procedures.[8] The assay is partly based on the procedure developed by Lu et al[9] and makes use of the reduction of DTNB (5,5′-dithiobis-(2-nitrobenzoic acid)). Solutions of E. coli TrxR (10.1 U/mL) and E. coli thioredoxin (Trx) (312 μg/mL) (both purchased from Sigma-Aldrich) were prepared in distilled water. Stock solutions of the test compounds (2 mM) were prepared in DMSO and serially diluted with TE buffer (Tris-HCl 50 mM, EDTA 1 mM, pH 7.5). 20 μL of these solutions or TE buffer without the test compounds (positive control) were mixed with the TrxR solution (10 μL), the Trx solution (10 μL) and 100 µl of NADPH (200 μM) in TE buffer in a well on a 96-well plate. As a blank control, 200 μM NADPH in TE buffer (100 μL) mixed with a DMSO / buffer mixture (40 μL) was used (final concentrations of DMSO: 0.5% v/v). The plate was incubated for 75 min at 25°C with moderate shaking. After incubation, 100 μL of a reaction mixture (TE buffer containing 200 μM NADPH and 5 mM DTNB) was added to each well to initiate the reaction. After thorough mixing, the formation of 5-TNB was monitored by a microplate reader at 405 nm in 35 s intervals (10 measurements). The values were corrected by subtraction of the blank solution absorption values. The increase in concentration of 5-TNB followed a linear trend (r2≥ 0.990) and the enzymatic activities were calculated as the gradients (increase in absorbance per second) thereof. […]
for each test compound, where the highest test compound concentration was used and the enzyme solution was replaced by TE buffer. The inhibition is presented as the mean IC50 values and standard deviations obtained in three independent experiments.
Table S13. Activity of TrxR from E. coli in presence of compounds at 0.5 µM (n = 2, n.d.= not

[12] = Table 2, MRSA DSM 11822, 18 h, 37 °C
[13] = Table S12, ± standard error of the mean

Chain of TrxR from E. coli (P0A9P4 2-321): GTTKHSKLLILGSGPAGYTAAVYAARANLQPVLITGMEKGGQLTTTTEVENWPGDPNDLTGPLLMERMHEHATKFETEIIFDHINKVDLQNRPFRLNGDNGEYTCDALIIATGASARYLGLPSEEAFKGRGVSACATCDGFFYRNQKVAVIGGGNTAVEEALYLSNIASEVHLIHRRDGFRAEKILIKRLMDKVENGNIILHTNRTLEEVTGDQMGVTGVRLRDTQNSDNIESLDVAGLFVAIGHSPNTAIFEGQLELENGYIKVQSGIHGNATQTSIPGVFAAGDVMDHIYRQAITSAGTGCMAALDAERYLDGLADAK

Row | SMILES | IC50 [1] | IC50 [2] | IC50 [3] | IC50 [4] | IC50 [5] | MIC, A.b. [6] | MIC, A. baumannii [6] | MIC, E.f. [7] | MIC, E. faecium [7] | MIC, E.c. [8] | MIC, E. coli [8] | MIC, K.p. [9] | MIC, K. pneumoniae [9] | MIC, P.a. [10] | MIC, P. aeruginosa [10] | MIC, MRSA [11, 12] | MIC, MRSA [11, 13] | TrxR activity, % of control (TrxR from E. coli) | IC50 (TrxR from E. coli) | Tumour selectivity: tumour cell lines in comparison to Vero E6 [5]
1 | Cn1cc(C(=O)O)[n+](C)[c]1[Au-]([Cl])([Cl])[Cl] [4a] | 36.1 µM | > 90 µM | 47.8 µM | 31.8 µM | 42.4 µM | 36 ± 3 µM | 36.08 ± 2.83 µM | >100 µM | > 100 µM | 72 ± 0 µM | 72.16 ± 0 µM | 36 ± 6 µM | 36.08 ± 5.67 µM | >100 µM | > 100 µM | >100 µM | > 100 µM | 86.1 % of control | – | –
2 | COC(=O)c1cn(C)[c]([Au-]([Cl])([Cl])[Cl])[n+]1C [4b] | 17.7 µM | 26.2 µM | 15.2 µM | 15.2 µM | 22.2 µM | 9 µM and 9 ± 2 µM | 8.74 ± 1.82 µM | 17 µM and 17 ± 0 µM | 17.49 ± 0 µM | 35 µM and 35 ± 0 µM | 34.97 ± 0 µM | 35 µM and 35 ± 0 µM | 34.97 ± 0 µM | >100 µM | > 100 µM | 17 µM and 17 ± 0 µM | 17.49 ± 0 µM | 36.5 % of control | 362 ± 33 nM | –
3 | CCOC(=O)c1cn(C)[c]([Au-]([Cl])([Cl])[Cl])[n+]1C [4c] | 17.9 µM | 28.4 µM | 14.6 µM | 11.1 µM | 20.7 µM | 8 µM and 8 ± 1 µM | 8.48 ± 1.33 µM | 17 µM and 17 ± 0 µM | 16.97 ± 0 µM | 34 µM and 34 ± 0 µM | 33.93 ± 0 µM | 34 µM and 34 ± 5 µM | 33.93 ± 5.33 µM | >100 µM | > 100 µM | 17 µM and 17 ± 2 µM | 16.97 ± 2.67 µM | 28.5 % of control | 381 ± 53 nM | –
4 | CC(=O)OC[C@H]1O[C@@H]([S-])[C@H](OC(C)=O)[C@@H](OC(C)=O)[C@@H]1OC(C)=O.CCP(CC)CC.[Au+] [AF, auranofin, reference compound] | 3.53 µM | 4.32 µM | 1.89 µM | 0.8 µM | 2.4 µM | 55 µM | 55 µM | 0.3 µM | 0.3 µM | 46 µM | 46 µM | 81 µM | 81 µM | >100 µM | > 100 µM | 0.4 µM | 0.4 µM | – | 210 ± 30 nM | –
5 | COC(=O)c1cn(C)[c]([Au-][Cl])[n+]1C [2b] | 22.7 µM | 19.8 µM | 23.8 µM | 12.8 µM | – | 10 µM and 10 ± 0 µM | 10.35 ± 0 µM | 10 µM and 10 ± 0 µM | 10.35 ± 0 µM | 41 µM and 41 ± 0 µM | 41.39 ± 0 µM | 41 µM and 41 ± 0 µM | 41.39 ± 0 µM | >100 µM | > 100 µM | 10 µM and 10 ± 0 µM | 10.35 ± 0 µM | 8.9 % of control | 293 ± 163 nM | –
6 | COC(=O)c1cn(C)[c]([Au-][c]2n(C)cc(C(=O)OC)[n+]2C)[n+]1C.O=S(=O)([O-])C(F)(F)F [3b] | 5.21 µM | 27.7 µM | 34.4 µM | 19.2 µM | > 100 µM | – | > 100 µM | – | > 100 µM | – | > 100 µM | – | > 100 µM | – | > 100 µM | – | > 100 µM | 106 % of control | – | clear preference for the tumour cell lines
7 | CCOC(=O)c1cn(C)[c]([Au-][c]2n(C)cc(C(=O)OCC)[n+]2C)[n+]1C.F[B-](F)(F)F [3c] | 1.07 µM | 5.78 µM | 4.64 µM | 2.51 µM | 31.5 µM | – | > 100 µM | – | > 100 µM | – | > 100 µM | – | > 100 µM | – | > 100 µM | – | 25.79 ± 0 µM | 115 % of control | – | clear preference for the tumour cell lines
8 | Cn1cc(C(=O)O)[n+](C)[c]1[Au-][c]1n(C)cc(C(=O)O)[n+]1C.[Cl-] [3a] | – | – | – | – | – | – | 31.2 ± 4.90 µM | – | > 100 µM | – | 62.4 ± 0 µM | – | 62.4 ± 0 µM | – | 62.4 ± 0 µM | – | > 100 µM | – | – | –
